Results: a melting point compilation (Tetko et al.; mined from patent text by program, amines drawn as free bases though some values may be those of a salt)

Row | melting point [°C] | SMILES
1 | 71.5 to 73 | O=Cc1cccnc1SCc1ccccc1
2 | 270 | CC(C)(C)OC(=O)N[C@@H](Cc1c[nH]c2ccccc12)c1nc2c(C(F)(F)F)cccc2c(O)c1C(=O)Nc1nccs1
3 | 268 to 272 | CC(=O)Nc1nc2c(s1)C(=O)CCC2
4 | 173 to 174 | Cc1c(CC(=O)O)oc2ccc(-c3ccccc3)cc12
5 | 101 to 102 | Cc1cc(Oc2cccc(C(F)(F)F)c2)nn1C(=O)NCC1CCCO1 (centres undefined)
6 | 145 to 146 | COc1ccccc1N1CCN(CCC(N)=O)CC1
7 | 128 to 129 | CC1(C)Cc2nc(C3CCCC3)c(C(=O)c3ccc(C(F)(F)F)cc3)c(-c3ccc(F)c(F)c3)c2C(O[Si](C)(C)C(C)(C)C)C1 (centres undefined)
8 | 90 to 93.5 | COc1ccccc1NC(=O)c1ccc(CN2CCOCC2)cc1
9 | 190 to 196 | CCc1c(-c2ccccc2)c2c(c3c1[nH]c1ccc(O)cc13)C(=O)NC2=O
10 | 125 to 126 | Cc1ccc(S(=O)(=O)OC[C@H]2CC[C@@H](COS(=O)(=O)c3ccc(C)cc3)O2)cc1
11 | 190 to 192 | CCOC(=O)c1cc2cc(NC(=O)OC(C)(C)C)ccc2[nH]1
12 | 74 to 75 | COC(=O)c1nc(C2CC2)nc(SC)c1Cl
13 | 119 to 123 | Cn1c2c(c3ccccc31)SCCC2(C)C=O (centres undefined)
14 | 147 to 150 | CNS(=O)(=O)c1cc(C2(O)CCC(=O)N2C)ccc1Cl (centres undefined)
15 | 145 to 146 | CCCc1nc(C(C)(C)O)c(C(=O)OCC)n1Cc1ccc(-c2ccccc2C(=O)NC(C)(C)C)cc1
16 | 162 to 164 | CC(C)(C)[Si](C)(C)Oc1ccc2c(c1)OC(O)c1c-2sc2cc(O[Si](C)(C)C(C)(C)C)ccc12 (centres undefined)
17 | 105 to 107 | CCOC(=O)c1ccc(OCC(=O)c2ccc3c(c2)C(C)(C)CCC3(C)C)cc1
18 | 182 to 183 | CCOC(=O)C1CC2C(=O)N=C(C(C)C)C=C2S1=N (centres undefined)
19 | 138 to 139 | CN(C)CCOc1cc2c(Nc3cccc(Br)c3)c(C#N)cnc2cn1
20 | 237 | CS(=O)(=O)Nc1cccc([N+](=O)[O-])c1
21 | 65 to 66 | CC(C)(C)OC(=O)C12CC3CC(C1)CC(C(=O)OC(C)(C)C)(C3)C2
22 | 242 to 245 | COc1cc2c(cc1Nc1ncc(Cl)c(Nc3ccc(N4CCOCC4)cc3OC)n1)CCOC(=O)N2C
23 | 154 to 155 | COc1ccc(S(=O)(=O)Nc2cccc3c2Nc2ccccc2CO3)cc1
24 | 81 | NS(=O)(=O)c1ccc(-c2c(-c3ccccc3)noc2COCCS(=O)(=O)CCO)cc1

Row | melting point [°C] | SMILES
25 | 68 to 69.5 | CCCc1c(OCCCCCOc2ccc3ccc(OCC(=O)OCC)cc3c2CCC(=O)OCC)ccc2c1OCCC2=O
26 | 113 to 114 | CC1(C)C(=O)C(c2cc(F)cc(F)c2)=C1c1ccc(S(C)(=O)=O)cc1
27 | 130 to 135 | CCOC(=O)Cn1ncc(-c2ccccc2)c1-c1ccc(O)cc1
28 | 143 to 145 | O=[N+]([O-])c1cc(SC(F)(F)F)[nH]c1-c1ccc(Cl)cc1
29 | 137 to 138 | CNC(=O)c1cc(-c2ccc(OC)cc2)nn(CC2CC2)c1=O
30 | 117 to 118 | CC(=O)c1ccc(OCc2cccc([N+](=O)[O-])c2)cc1O
31 | 137 | COC(=O)c1cncc(OC2SCC(O)C(O)C2O)c1 (centres undefined)
32 | 166 to 168 | O=C(N[C@H]1CCCNC1=O)c1ccccc1F
33 | 140 | COc1cc(C(=O)N2CCN(C(=O)c3cc(OC)c(OC)c(OC)c3)C(CNC(=O)OC(C)C)C2)cc(OC)c1OC (centres undefined)
34 | 112 | CCCCOc1ccc(S(=O)(=O)C2(C(=O)NO)CCN(CCOc3ccccc3)CC2)cc1
35 | 53 to 55 | CCOC(=O)/C(C)=C/CC[C@@H](C)[C@H]1CC[C@@]2(C)C3=CCC4C(C)(C)C(=O)CC[C@]4(C)C3=CC[C@]12C (some centres undefined)
36 | 108 to 110 | CCOC(=O)Cc1c(C(F)(F)F)nc(C)[nH]c1=O
37 | 192 to 194 | CN1CCC(c2c[nH]c3ccc(OS(=O)(=O)c4ccccc4)cc23)CC1
38 | 205 to 206 | CC(=O)Nc1ccc(O)c(C(=O)CCC(=O)O)c1
39 | 95 to 97 | Cc1ccccc1OCC(O)COc1cccc2oc(C(=O)O)cc(=O)c12 (centres undefined)
40 | 182 to 185 | CCC(=O)Oc1ccc2c(c1)CCC1C2CCC2(C)C1CC(O)C2NC (centres undefined)
41 | 51 to 52 | CCCC(CCCCCN1C(=O)c2ccccc2C1=O)(C(=O)OCC)C(=O)OCC
42 | 45 to 48 | C[Si](C)(C)CCCOc1cc(Cl)c([N+](=O)[O-])cc1Cl
43 | 48 to 50 | CCCCCc1c(C(C)C)nc(C(C)C)c(CNCC)c1-c1ccc(F)cc1
44 | 127 | COc1ccc([C@]2(C)C=Cc3cc(OC)ccc3[C@H]2C=O)cc1 (relative stereo)
45 | 126 to 129 | COc1ccc(/C=C/S(=O)(=O)N(C)c2ccccc2)cc1
46 | 68 to 72 | CC(CCC(=O)O)(c1ccc(OCc2ccc3ccccc3n2)cc1)c1ccc(OCc2nc3ccccc3s2)cc1 (centres undefined)
47 | 256 | Cc1ccc(N2C(=O)C(O)=C(C(=O)c3ccc(C(C)C)cc3)C2c2ccc(OCCN3CCOCC3)cc2)nn1 (centres undefined)
48 | 170 to 172 | CSc1ncc(Cc2cccs2)c(=O)[nH]1

Row | melting point [°C] | SMILES
49 | 118 to 119 | Cc1cc(C2(C(F)(F)F)CC(c3ccc(Cl)cc3)=NO2)ccc1N (centres undefined)
50 | 255 to 257 | CN(Cc1cccc2c1CN(C1CCC(=O)NC1=O)C2=O)C(=O)Nc1ccc(Cl)cc1 (centres undefined)
51 | 156 to 158 | CC(C)(C)[Si](C)(C)OCCc1c(N)nc(SCc2ccc3ccccc3c2)nc1O
52 | 63 to 65 | CCN(CC)C(=O)C(=NNc1ccccc1)C(C)=O
53 | 216 to 217 | CCCCCCn1ccc(N)nc1=O
54 | 225 to 227 | CNC(=O)Nc1cc(-c2c(-c3ccc(F)c(C)c3)nc3cccnn23)ccn1
55 | 129 to 131 | COc1cccc2c1CC(CC(=O)O)C(=O)C2 (centres undefined)
56 | 229 to 233 | Cc1c(Cc2ccccc2)c(=O)oc2cc(OCc3nnn[nH]3)cc(OCc3nnn[nH]3)c12
57 | 105 | O=[N+]([O-])c1sccc1Nc1ccccc1
58 | 81 to 83 | O=C1C=C2C=CC=C2O1
59 | 84 to 86 | c1cn(CCCCn2ccnc2)cn1
60 | 119 to 120 | O=C1CCC(c2c[nH]c3ccc(F)cc23)C1 (centres undefined)
61 | 155 to 156 | Cc1c(NC(=O)CC(C)(C)C)c(C)c2c(c1-c1cccs1)OCC2c1ccc(C(C)C)cc1 (centres undefined)
62 | 204 to 206 | CC(C)=C(c1ccc(C(=O)O)cc1)c1ccc2c(c1)C(C)(C)CCC2(C)C
63 | 47 to 49 | CC(C)(C)c1ccc2c(c1)CCC(CN1CCCCC1)C2=O (centres undefined)
64 | > 260 | CNC(=O)Cc1ccc2c(c1)Cc1c-2[nH]c(=O)c2nccn12
65 | 186 | Cc1ccc2c(c1NC(=O)NCC1(c3ccccc3)CCCC1)OC(C)(C)C2
66 | 138 to 141 | Cc1cccc(C)c1NC(=O)NCCCc1cc(-c2ccccc2)n(-c2ccc(S(N)(=O)=O)cc2)n1
67 | 127 to 129 | CCCc1c(C(=O)OCC)nc2ccccc2c1OCc1ccccc1
68 | 242 to 243 | Cc1c2c(cc3c(=O)c4ccccc4oc13)CC(CO)O2 (centres undefined)
69 | 69 to 70 | CCOC(=O)c1ccc(C2=NOCCS2)cc1
70 | 267 to 275 | CC1CC1n1cc(C(=O)O)c(=O)c2cc(F)c(N3CCC(N)C3)c(F)c21 (centres undefined)
71 | 131 to 132 | Cc1nc(O)cc(C(C)(C)C)n1
72 | 246 | N#Cc1cn(-c2cccc(F)c2)c(=O)[nH]c1=O

Row | melting point [°C] | SMILES
73 | 79 to 81 | CC(C)OCC1(C(C)(F)F)c2cc(C#N)ccc2Nc2ncc(Cl)cc21 (centres undefined)
74 | 134 to 136 | Cc1cc(C)c(C(=O)c2cccc(-n3ccnc3)c2)c(C)c1
75 | 89 to 92 | CCN(CC)C(=O)c1cc(C(C)(C)C)ccc1-c1ccc(OC)cc1
76 | 204 to 206 | Fc1cc(Br)ccc1CSc1nc2cnccc2[nH]1
77 | 156 to 158 | COc1ccc(Cn2nnc(-c3ccc(OC)c(C(=O)NCc4ccc(F)cc4)c3)n2)cc1
78 | 263 to 265 | O=c1cc(-c2ccncc2)cc[nH]1
79 | 165 to 167 | COc1cc2nc(N3CCN(C(=O)C4CCc5ccccc5O4)CC3)nc(N)c2cc1OC (centres undefined)
80 | 124 to 126 | O=C1c2ccccc2C(=O)N1CCOCCOCCOCCOCCOCCN1C(=O)c2ccccc2C1=O
81 | 115 to 117 | O=C1CN2CCCCC2=NN1c1ccc(Cl)cc1Cl
82 | 253 to 254 | CSc1cc2c(cc1C(F)(F)F)N(C(=O)Nc1ccc(-c3csc(-c4ccncc4)n3)cc1)CC2
83 | 142 to 143 | CC(=O)OC1OCCC[C@@H]1NC(=O)[C@H](CC(C)C)NC(=O)OCc1ccccc1 (some centres undefined)
84 | 291 to 293 | O=c1[nH]c(-c2cccc3ccccc23)nc2ccc(N3CCOCC3)cc12
85 | 126 to 127 | CCC(=O)Nc1ccc(C(=O)C(C)Br)cc1 (centres undefined)
86 | 94 to 96 | COc1nc2cc(Cl)cc(I)c2nc1OC
87 | 190 to 191 | CCOCc1nc2c(N)nc(C)c(C)c2n1CC1(O)CCC1
88 | 265 | Cc1ccc2c(N3CCc4ccc(Cl)cc43)ncnc2c1
89 | 96.5 to 100 | CC(C)(C)CC(C)(CO)C(=O)O (centres undefined)
90 | 107 | CCCC(CCC)(CC(=O)O)CC(=O)O
91 | 143 to 144 | C=CCN1CCCC1CNC(=O)c1cc(S(N)(=O)=O)cc2c1OCCO2 (centres undefined)
92 | 240 to 241 | Cc1ccc2oc(C(=O)N[C@H]3CCN(C(=O)c4cc(C(F)(F)F)cc(C(F)(F)F)c4)[C@H](Cc4ccc(Cl)cc4)C3)cc(=O)c2c1
93 | 138 to 140 | CCCc1c(OCCCS(=O)(=O)c2ccc(C(=O)CCCCC(=O)O)cc2)ccc(C(C)=O)c1O
94 | 227 to 230 | CCNC(=O)Nc1ccc(Oc2ccc3nc(COc4ccc(CC5SC(=O)NC5=O)cc4)n(C)c3c2)cc1 (centres undefined)
95 | 227 to 229 | CN1CCC(C)(c2nc(-c3ccncc3)c(-c3ccc(F)cc3)[nH]2)CC1

Row | SMILES | melting point [°C]
96 | CC(C)N1C(=O)C(C)(C)N=C(c2ccccc2Cl)c2cc(N)ccc21 | 243 to 244
97 | Clc1ccc2c(c1)C(c1ccco1)=NCC1CSCCN21 (centres undefined) | 138 to 140
98 | COC(=O)C1C=C2c3cccc4[nH]c(Br)c(c34)CC2N(C)C1 (centres undefined) | 124 to 125
99 | C#CCN1C(=O)N(c2ccc(C#N)c(C(F)(F)F)c2)C(=O)C1(CO)CO | 125 to 126
